{"source": "paper PMC8222254", "about": "“Self-assembly of an anion receptor with metal-dependent kinase inhibition and potent in vitro anti-cancer properties” (Nature Communications, 2021)", "test_in_all_cases": "Kinase inhibition screen, cell-free 33P ATP assay at 10 μM", "format_in_all_cases": "biochemical", "key": {"[1]": {"molecular_target": "T1, 140 purified human kinases (Homo sapiens, UniProt Q8IVH8)", "T1 sequence (Q8IVH8 1-894)": "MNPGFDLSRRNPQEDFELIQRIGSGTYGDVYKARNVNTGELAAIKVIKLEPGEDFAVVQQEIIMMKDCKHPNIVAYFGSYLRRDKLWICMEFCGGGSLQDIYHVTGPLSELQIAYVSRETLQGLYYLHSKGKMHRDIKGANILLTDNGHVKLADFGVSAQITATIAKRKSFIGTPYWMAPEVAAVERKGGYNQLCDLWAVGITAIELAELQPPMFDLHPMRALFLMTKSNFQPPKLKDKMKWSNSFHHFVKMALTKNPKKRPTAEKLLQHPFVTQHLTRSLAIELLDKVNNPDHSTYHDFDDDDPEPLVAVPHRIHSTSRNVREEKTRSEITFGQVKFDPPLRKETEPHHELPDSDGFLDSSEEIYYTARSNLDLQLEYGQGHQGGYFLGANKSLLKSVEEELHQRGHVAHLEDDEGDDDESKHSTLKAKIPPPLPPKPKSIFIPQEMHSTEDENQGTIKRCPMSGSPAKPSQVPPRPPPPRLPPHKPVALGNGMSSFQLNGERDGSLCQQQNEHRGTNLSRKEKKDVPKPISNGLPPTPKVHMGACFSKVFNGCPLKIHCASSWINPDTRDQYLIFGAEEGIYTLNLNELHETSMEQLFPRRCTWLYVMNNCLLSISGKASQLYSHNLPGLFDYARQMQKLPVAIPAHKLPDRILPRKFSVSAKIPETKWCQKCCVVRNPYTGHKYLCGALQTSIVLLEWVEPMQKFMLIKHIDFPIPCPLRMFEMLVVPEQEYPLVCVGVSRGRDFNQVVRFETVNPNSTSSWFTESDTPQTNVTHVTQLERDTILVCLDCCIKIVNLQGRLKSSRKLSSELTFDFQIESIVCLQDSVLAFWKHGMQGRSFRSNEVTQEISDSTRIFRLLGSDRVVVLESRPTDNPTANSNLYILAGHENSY", "summary_of_the_method": "(§1)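 Radiometric ^33P ATP cell-free format with purified enzymes; both complexes run at 10 μM in duplicate, results plotted on a kinome map via HGNC symbols.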"}, "[2]": {"molecular_target": "T2, 140 purified human kinases (Homo sapiens, UniProt Q8IWQ3)", "T2 sequence (Q8IWQ3 1-736)": "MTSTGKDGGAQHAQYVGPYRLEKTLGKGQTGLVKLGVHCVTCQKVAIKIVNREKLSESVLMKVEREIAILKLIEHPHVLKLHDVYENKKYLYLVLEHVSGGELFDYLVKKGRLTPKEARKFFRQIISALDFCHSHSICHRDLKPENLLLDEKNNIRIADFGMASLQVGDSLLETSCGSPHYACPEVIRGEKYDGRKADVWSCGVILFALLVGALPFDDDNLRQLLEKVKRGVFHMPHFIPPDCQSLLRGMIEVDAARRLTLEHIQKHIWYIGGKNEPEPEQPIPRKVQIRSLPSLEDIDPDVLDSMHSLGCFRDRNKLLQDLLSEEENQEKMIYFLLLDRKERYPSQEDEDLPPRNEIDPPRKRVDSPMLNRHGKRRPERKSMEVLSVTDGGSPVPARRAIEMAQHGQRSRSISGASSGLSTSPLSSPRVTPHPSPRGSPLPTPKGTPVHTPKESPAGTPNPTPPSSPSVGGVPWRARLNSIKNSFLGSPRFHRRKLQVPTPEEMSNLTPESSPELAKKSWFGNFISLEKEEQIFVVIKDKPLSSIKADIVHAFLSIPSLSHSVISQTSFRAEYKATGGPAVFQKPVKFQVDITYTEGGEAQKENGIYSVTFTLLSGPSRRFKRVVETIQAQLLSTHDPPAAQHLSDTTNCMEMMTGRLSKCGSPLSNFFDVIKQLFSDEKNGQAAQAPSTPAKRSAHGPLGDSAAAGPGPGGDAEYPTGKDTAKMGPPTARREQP", "summary_of_the_method": "as §1"}, "[3]": {"molecular_target": "140 purified human kinases (Homo sapiens, UniProt Q13882)", "sequence (Q13882 whole entry)": "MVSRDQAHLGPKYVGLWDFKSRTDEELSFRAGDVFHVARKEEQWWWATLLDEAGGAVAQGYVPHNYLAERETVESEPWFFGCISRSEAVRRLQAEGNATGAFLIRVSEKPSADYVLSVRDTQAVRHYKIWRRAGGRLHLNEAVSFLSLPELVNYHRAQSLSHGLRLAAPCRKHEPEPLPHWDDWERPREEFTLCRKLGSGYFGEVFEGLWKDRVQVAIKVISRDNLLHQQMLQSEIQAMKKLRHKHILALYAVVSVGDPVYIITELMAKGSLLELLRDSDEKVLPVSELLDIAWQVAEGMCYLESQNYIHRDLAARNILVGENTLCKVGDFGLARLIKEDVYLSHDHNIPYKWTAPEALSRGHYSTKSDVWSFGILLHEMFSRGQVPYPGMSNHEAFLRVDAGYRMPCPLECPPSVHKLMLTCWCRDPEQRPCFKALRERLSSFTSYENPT", "conditions": "BRK", "summary_of_the_method": "as §1"}, "[4]": {"molecular_target": "140 purified human kinases (Homo sapiens, UniProt P49841)", "sequence (P49841 whole entry)": "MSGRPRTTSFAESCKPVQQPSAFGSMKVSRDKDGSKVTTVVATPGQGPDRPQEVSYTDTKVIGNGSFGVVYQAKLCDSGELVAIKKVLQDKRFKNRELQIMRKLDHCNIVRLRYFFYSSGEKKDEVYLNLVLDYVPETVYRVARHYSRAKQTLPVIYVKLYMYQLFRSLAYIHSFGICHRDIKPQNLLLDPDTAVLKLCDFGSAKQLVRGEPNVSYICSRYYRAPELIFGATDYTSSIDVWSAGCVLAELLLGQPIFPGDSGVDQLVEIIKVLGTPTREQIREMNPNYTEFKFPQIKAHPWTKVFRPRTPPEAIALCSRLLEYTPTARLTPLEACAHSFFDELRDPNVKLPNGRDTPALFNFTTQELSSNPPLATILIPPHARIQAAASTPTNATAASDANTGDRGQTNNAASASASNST", "conditions": "GSK3b", "summary_of_the_method": "as §1"}, "[5]": {"molecular_target": "140 purified human kinases (Homo sapiens, UniProt P49137)", "sequence (P49137 whole entry)": "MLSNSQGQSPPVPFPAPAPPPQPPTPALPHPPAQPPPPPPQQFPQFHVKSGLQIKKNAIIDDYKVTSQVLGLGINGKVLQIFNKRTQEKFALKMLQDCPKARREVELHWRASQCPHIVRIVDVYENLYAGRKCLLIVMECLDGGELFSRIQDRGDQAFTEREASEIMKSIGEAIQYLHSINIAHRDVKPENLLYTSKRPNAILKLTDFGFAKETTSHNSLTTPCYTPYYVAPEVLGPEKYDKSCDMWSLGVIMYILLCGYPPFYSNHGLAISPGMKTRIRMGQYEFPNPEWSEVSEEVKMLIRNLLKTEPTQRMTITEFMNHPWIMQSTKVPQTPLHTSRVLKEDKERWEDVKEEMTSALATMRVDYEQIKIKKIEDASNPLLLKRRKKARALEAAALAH", "summary_of_the_method": "as §1"}, "[6]": {"molecular_target": "140 purified human kinases (Homo sapiens, UniProt P51617)", "sequence (P51617 whole entry)": "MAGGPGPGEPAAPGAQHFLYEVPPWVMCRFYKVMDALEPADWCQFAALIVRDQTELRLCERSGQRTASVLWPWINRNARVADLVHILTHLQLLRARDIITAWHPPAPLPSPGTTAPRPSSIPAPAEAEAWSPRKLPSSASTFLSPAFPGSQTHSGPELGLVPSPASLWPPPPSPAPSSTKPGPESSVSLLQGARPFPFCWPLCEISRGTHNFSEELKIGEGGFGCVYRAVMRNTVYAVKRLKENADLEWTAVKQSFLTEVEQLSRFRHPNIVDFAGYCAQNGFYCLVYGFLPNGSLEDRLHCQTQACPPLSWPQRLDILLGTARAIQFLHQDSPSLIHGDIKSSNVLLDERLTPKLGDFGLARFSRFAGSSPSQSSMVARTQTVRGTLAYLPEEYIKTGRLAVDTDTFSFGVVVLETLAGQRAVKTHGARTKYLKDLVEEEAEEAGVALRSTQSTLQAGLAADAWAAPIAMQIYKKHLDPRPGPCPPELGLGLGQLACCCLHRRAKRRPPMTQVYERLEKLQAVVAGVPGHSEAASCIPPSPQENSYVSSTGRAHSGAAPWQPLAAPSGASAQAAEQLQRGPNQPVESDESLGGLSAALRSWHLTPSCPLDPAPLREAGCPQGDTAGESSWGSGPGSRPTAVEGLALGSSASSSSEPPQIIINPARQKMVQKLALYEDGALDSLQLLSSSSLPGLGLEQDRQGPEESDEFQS", "summary_of_the_method": "as §1"}, "[7]": {"test_system": "140 purified human kinases", "conditions": "PHK", "summary_of_the_method": "as §1"}}, "note": "“And” between values parts separate entries of the source, which are not always exact repeats. Identical values can stand only once.", "data": [{"smiles": "[Cu+2].[Cu+2].[Cu+2].c1ccc(-c2csc(NCCN(CCNc3nc(-c4ccccn4)cs3)CCNc3nc(-c4ccccn4)cs3)n2)nc1.c1ccc(-c2csc(NCCN(CCNc3nc(-c4ccccn4)cs3)CCNc3nc(-c4ccccn4)cs3)n2)nc1", "note": "[[L2Cu3]6+]", "values": [{"measurement": "% Inhibition Run 1", "setting": "[1]; MAP4K3", "result": 72.4, "unit": "%"}, {"measurement": "% Inhibition Run 2", "setting": "[1]; MAP4K3", "result": 85.5, "unit": "%"}, {"measurement": "% Inhibition, Mean", "setting": "[1]; MAP4K3", "result": 79, "unit": "%"}, {"measurement": "mean % activity", "setting": "[1]; MAP4K3", "result": 21, "unit": "%"}, {"measurement": "% activity", "setting": "[1]; MAP4K3, Run 1", "result": 27.6, "unit": "%"}, {"measurement": "% activity", "setting": "[1]; MAP4K3, Run 2", "result": 14.5, "unit": "%"}, {"measurement": "% Inhibition Run 1", "setting": "[2]; BRSK2", "result": 77.8, "unit": "%"}, {"measurement": "% Inhibition Run 2", "setting": "[2]; BRSK2", "result": 75.3, "unit": "%"}, {"measurement": "% Inhibition, Mean", "setting": "[2]; BRSK2", "result": 77, "unit": "%"}, {"measurement": "mean % activity", "setting": "[2]; BRSK2", "result": 23, "unit": "%"}, {"measurement": "% activity", "setting": "[2]; BRSK2, Run 1", "result": 22.2, "unit": "%"}, {"measurement": "% activity", "setting": "[2]; BRSK2, Run 2", "result": 24.7, "unit": "%"}, {"measurement": "% Inhibition Run 1", "setting": "[3]", "result": 67.9, "unit": "%"}, {"measurement": "% Inhibition Run 2", "setting": "[3]", "result": 57.6, "unit": "%"}, {"measurement": "% Inhibition, Mean", "setting": "[3]", "result": 63, "unit": "%"}, {"measurement": "mean % activity", "setting": "[3]", "result": 37, "unit": "%"}, {"measurement": "% activity", "setting": "[3]; Run 1", "result": 32.1, "unit": "%"}, {"measurement": "% activity", "setting": "[3]; Run 2", "result": 42.4, "unit": "%"}, {"measurement": "% Inhibition Run 1", "setting": "[4]", "result": 28.4, "unit": "%"}, {"measurement": "% Inhibition Run 2", "setting": "[4]", "result": 32.5, "unit": "%"}, {"measurement": "% Inhibition, Mean", "setting": "[4]", "result": 30, "unit": "%"}, {"measurement": "mean % activity", "setting": "[4]", "result": 70, "unit": "%"}, {"measurement": "% activity", "setting": "[4]; Run 1", "result": 71.6, "unit": "%"}, {"measurement": "% activity", "setting": "[4]; Run 2", "result": 67.5, "unit": "%"}, {"measurement": "% Inhibition Run 1", "setting": "[5]; MAPKAP-K2", "result": 97.8, "unit": "%"}, {"measurement": "% Inhibition Run 2", "setting": "[5]; MAPKAP-K2", "result": 98.1, "unit": "%"}, {"measurement": "% Inhibition, Mean", "setting": "[5]; MAPKAP-K2", "result": 98, "unit": "%"}, {"measurement": "mean % activity", "setting": "[5]; MAPKAP-K2", "result": 2, "unit": "%"}, {"measurement": "% activity", "setting": "[5]; MAPKAP-K2, Run 1", "result": 2.2, "unit": "%"}, {"measurement": "% activity", "setting": "[5]; MAPKAP-K2, Run 2", "result": 1.9, "unit": "%"}, {"measurement": "% Activity inhibition Mean", "setting": "[5]; MAPKAP-K2, 10 µM", "result": 97.9, "unit": "%"}, {"measurement": "% Activity inhibition Run 1", "setting": "[5]; MAPKAP-K2, 10 µM", "result": 97.8, "unit": "%"}, {"measurement": "% Activity inhibition Run 2", "setting": "[5]; MAPKAP-K2, 10 µM", "result": 98.1, "unit": "%"}, {"measurement": "% Activity remaining Run 1", "setting": "[5]; MAPKAP-K2, 10 µM", "result": 2.20, "unit": "%"}, {"measurement": "% Activity remaining Run 2", "setting": "[5]; MAPKAP-K2, 10 µM", "result": 1.90, "unit": "%"}, {"measurement": "% Inhibition Run 1", "setting": "[6]; IRAK1", "result": 41.6, "unit": "%"}, {"measurement": "% Inhibition Run 2", "setting": "[6]; IRAK1", "result": 44.4, "unit": "%"}, {"measurement": "% Inhibition, Mean", "setting": "[6]; IRAK1", "result": 43, "unit": "%"}, {"measurement": "mean % activity", "setting": "[6]; IRAK1", "result": 57, "unit": "%"}, {"measurement": "% activity", "setting": "[6]; IRAK1, Run 1", "result": 58.4, "unit": "%"}, {"measurement": "% activity", "setting": "[6]; IRAK1, Run 2", "result": 55.6, "unit": "%"}, {"measurement": "% activity", "setting": "[7]; Run 1", "result": 40.1, "unit": "%"}, {"measurement": "% activity", "setting": "[7]; Run 2", "result": 50.7, "unit": "%"}]}, {"smiles": "CC(=O)[O-].CC(=O)[O-].CC(=O)[O-].CC(=O)[O-].CC(=O)[O-].CC(=O)[O-].[Zn+2].[Zn+2].[Zn+2].c1ccc(-c2csc(NCCN(CCNc3nc(-c4ccccn4)cs3)CCNc3nc(-c4ccccn4)cs3)n2)nc1.c1ccc(-c2csc(NCCN(CCNc3nc(-c4ccccn4)cs3)CCNc3nc(-c4ccccn4)cs3)n2)nc1", "note": "[[L2Zn3]6+]", "values": [{"measurement": "% Inhibition, Mean", "setting": "[1]; MAP4K3", "result": 45, "unit": "%"}, {"measurement": "% Inhibition, Run 1 / Run 2", "setting": "[1]; MAP4K3", "result": "48% and 43%"}, {"measurement": "mean % activity", "setting": "[1]; MAP4K3", "result": 55, "unit": "%"}, {"measurement": "% activity", "setting": "[1]; MAP4K3, duplicate runs", "result": "52% and 58%"}, {"measurement": "% Inhibition, Mean", "setting": "[2]; BRSK2", "result": 37, "unit": "%"}, {"measurement": "% Inhibition, Run 1 / Run 2", "setting": "[2]; BRSK2", "result": "44% and 30%"}, {"measurement": "mean % activity", "setting": "[2]; BRSK2", "result": 63, "unit": "%"}, {"measurement": "% activity", "setting": "[2]; BRSK2, duplicate runs", "result": "56% and 70%"}, {"measurement": "% Inhibition, Mean", "setting": "[3]", "result": 76, "unit": "%"}, {"measurement": "% Inhibition, Run 1 / Run 2", "setting": "[3]", "result": "83% and 69%"}, {"measurement": "mean % activity", "setting": "[3]", "result": 24, "unit": "%"}, {"measurement": "% activity", "setting": "[3]; duplicate runs", "result": "17% and 31%"}, {"measurement": "% Inhibition, Mean", "setting": "[4]", "result": 16, "unit": "%"}, {"measurement": "% Inhibition, Run 1 / Run 2", "setting": "[4]", "result": "20% and 11%"}, {"measurement": "mean % activity", "setting": "[4]", "result": 84, "unit": "%"}, {"measurement": "% activity", "setting": "[4]; duplicate runs", "result": "80% and 89%"}, {"measurement": "% Inhibition, Mean", "setting": "[5]; MAPKAP-K2", "result": 41, "unit": "%"}, {"measurement": "% Inhibition, Run 1 / Run 2", "setting": "[5]; MAPKAP-K2", "result": "47% and 35%"}, {"measurement": "mean % activity", "setting": "[5]; MAPKAP-K2", "result": 60, "unit": "%"}, {"measurement": "% activity", "setting": "[5]; MAPKAP-K2, duplicate runs", "result": "54% and 66%"}, {"measurement": "% Inhibition, Mean", "setting": "[6]; IRAK1", "result": 11, "unit": "%"}, {"measurement": "mean % activity", "setting": "[6]; IRAK1", "result": 89, "unit": "%"}, {"measurement": "% activity", "setting": "[6]; IRAK1, duplicate runs", "result": "97% and 81%"}, {"measurement": "% Inhibition, Run 1 / Run 2", "setting": "[7]", "result": "68% and 61%"}]}]}
